{
  "source": "patent US12180306B2",
  "about": "“Anti-allergic peptide and use thereof for immune regulation and anti-allergy” (Greenyn Biotechnology Co., Ltd, priority 2022, dated 2024)",
  "tested_on": "mouse mast cells P815",
  "experiment": "Inhibition of IL-4 and IL-13 secretion by compound 48/80-induced mouse mast cells P815",
  "format": "cell-based",
  "parameters": "key to IL-13 Concentration decrease percentage (%) / IL-4 Concentration decrease percentage (%): N represents that the results obtained have not decreased",
  "conditions": "synthetic peptides; for effects in inhibiting secretion of IL-4 and IL-13 by cells: comparison within Table 3; for inhibiting allergic reactions: conclusion from Table 3; for IL-4 Concentration decrease percentage (%) / IL-13 Concentration decrease percentage (%): P815 cells, compound 48/80 10 μg/mL",
  "method": "Referring to the method disclosed in Example 3, an ability of each of the above synthetic sequences in inhibiting secretion of cytokines such as IL-4 and IL-13 is tested, the results are shown in Table 3, where N represents that the results obtained have not decreased.",
  "data": [
    {"sequence": "GLGDAKVALGI [Peptide 3]", "values": [
      {"measurement": "effects in inhibiting secretion of IL-4 and IL-13 by cells", "value": "better effects"},
      {"measurement": "inhibiting allergic reactions", "value": "capable of inhibiting allergic reactions"},
      {"measurement": "IL-4 Concentration decrease percentage (%)", "value": 5.1, "unit": "%"},
      {"measurement": "IL-13 Concentration decrease percentage (%)", "value": 21.7, "unit": "%"}
    ]},
    {"sequence": "NPALQVIKV [Peptide 2]", "values": [
      {"measurement": "effects in inhibiting secretion of IL-4 and IL-13 by cells", "value": "better effects"},
      {"measurement": "inhibiting allergic reactions", "value": "capable of inhibiting allergic reactions"},
      {"measurement": "IL-4 Concentration decrease percentage (%)", "value": 8.1, "unit": "%"},
      {"measurement": "IL-13 Concentration decrease percentage (%)", "value": 27.1, "unit": "%"}
    ]},
    {"sequence": "DLQLAGLIGL [Peptide 1]", "values": [
      {"measurement": "inhibiting allergic reactions", "value": "capable of inhibiting allergic reactions"},
      {"measurement": "IL-4 Concentration decrease percentage (%)", "value": 14.5, "unit": "%"},
      {"measurement": "IL-13 Concentration decrease percentage (%)", "value": 24.0, "unit": "%"}
    ]},
    {"sequence": "DLDVVVALGI [Peptide 5]", "values": [
      {"measurement": "effects in inhibiting secretion of IL-4 and IL-13 by cells", "value": "better effects"},
      {"measurement": "inhibiting allergic reactions", "value": "capable of inhibiting allergic reactions"},
      {"measurement": "IL-4 Concentration decrease percentage (%)", "value": 7.3, "unit": "%"},
      {"measurement": "IL-13 Concentration decrease percentage (%)", "value": 24.0, "unit": "%"}
    ]},
    {"sequence": "KIVNQVNHLNPT [Peptide 12]", "values": [
      {"measurement": "IL-4 Concentration decrease percentage (%)", "value": "N"},
      {"measurement": "IL-13 Concentration decrease percentage (%)", "value": 10.8, "unit": "%"}
    ]},
    {"sequence": "QTAQALVLIG [Peptide 13]", "values": [
      {"measurement": "IL-4 Concentration decrease percentage (%)", "value": "N"},
      {"measurement": "IL-13 Concentration decrease percentage (%)", "value": 12.1, "unit": "%"}
    ]},
    {"sequence": "GVSGGVLAAILG [Peptide 9]", "values": [
      {"measurement": "IL-4 Concentration decrease percentage (%)", "value": 5.8, "unit": "%"},
      {"measurement": "IL-13 Concentration decrease percentage (%)", "value": 2.7, "unit": "%"}
    ]},
    {"sequence": "TANAIGLAGLI [Peptide 10]", "values": [
      {"measurement": "IL-4 Concentration decrease percentage (%)", "value": 9.3, "unit": "%"},
      {"measurement": "IL-13 Concentration decrease percentage (%)", "value": "N"}
    ]},
    {"sequence": "LVPWSIIGL [Peptide 14]", "values": [
      {"measurement": "IL-4 Concentration decrease percentage (%)", "value": "N"},
      {"measurement": "IL-13 Concentration decrease percentage (%)", "value": 9.8, "unit": "%"}
    ]},
    {"sequence": "VGNSLAAVIIG [Peptide 6]", "values": [
      {"measurement": "IL-4 Concentration decrease percentage (%)", "value": 0.9, "unit": "%"},
      {"measurement": "IL-13 Concentration decrease percentage (%)", "value": 2.7, "unit": "%"}
    ]},
    {"sequence": "NKKQAAALGI [Peptide 8]", "values": [
      {"measurement": "IL-4 Concentration decrease percentage (%)", "value": 1.0, "unit": "%"},
      {"measurement": "IL-13 Concentration decrease percentage (%)", "value": 11.4, "unit": "%"}
    ]},
    {"sequence": "EWLLGLLGI [Peptide 4]", "values": [
      {"measurement": "inhibiting allergic reactions", "value": "capable of inhibiting allergic reactions"},
      {"measurement": "IL-4 Concentration decrease percentage (%)", "value": 19.9, "unit": "%"},
      {"measurement": "IL-13 Concentration decrease percentage (%)", "value": 35.4, "unit": "%"}
    ]},
    {"sequence": "ADALQLVLAV [Peptide 15]", "values": [
      {"measurement": "IL-4 Concentration decrease percentage (%)", "value": 2.7, "unit": "%"},
      {"measurement": "IL-13 Concentration decrease percentage (%)", "value": 3.8, "unit": "%"}
    ]},
    {"sequence": "TRQKALAALGI [Peptide 16]", "values": [
      {"measurement": "IL-4 Concentration decrease percentage (%)", "value": "N"},
      {"measurement": "IL-13 Concentration decrease percentage (%)", "value": 5.9, "unit": "%"}
    ]},
    {"sequence": "PMALLAVLGL [Peptide 7]", "values": [
      {"measurement": "IL-4 Concentration decrease percentage (%)", "value": 4.1, "unit": "%"},
      {"measurement": "IL-13 Concentration decrease percentage (%)", "value": 5.2, "unit": "%"}
    ]},
    {"sequence": "PPYQGAPLM [Peptide 11]", "values": [
      {"measurement": "IL-4 Concentration decrease percentage (%)", "value": 10.0, "unit": "%"},
      {"measurement": "IL-13 Concentration decrease percentage (%)", "value": "N"}
    ]}
  ]
}
